Results published in publication doi:10.1101/2020.08.04.236877v1 (biorxiv, 2020).

Tests used:
Androgen (Testosterone) = Androgen (Testosterone) (Homo sapiens, UniProt P10275); assay: radioligand binding assay; details: read-out: % inhibition at 10 μM
[1] = biological target: Epidermal Growth Factor (EGF) (Homo sapiens, UniProt P00533); assay: biochemical; details: read-out: % inhibition or stimulation (human)
[2] = biological target: Platelet Activating Factor (PAF) (Homo sapiens, UniProt P25105); assay: biochemical; details: read-out: % inhibition or stimulation (human)
Glucocorticoid = Glucocorticoid (Homo sapiens, UniProt P04150); assay: biochemical; details: read-out: % inhibition or stimulation (human)
Serotonin 5-HT2B = Serotonin 5-HT2B (Homo sapiens, UniProt P41595); assay: radioligand binding assay; details: read-out: % inhibition at 10 μM
Potassium Channel hERG = Potassium Channel hERG (Homo sapiens, UniProt Q12809); assay: in vitro
[3] = biological target: Serotonin (5-Hydroxytryptamine) 5-HT1A (Homo sapiens, UniProt P08908); assay: biochemical; details: read-out: % inhibition or stimulation (human)
Endothelin ETA = Endothelin ETA (Homo sapiens, UniProt P25101); assay: biochemical; details: read-out: % inhibition or stimulation (human)
Tachykinin NK1 = Tachykinin NK1 (Homo sapiens, UniProt P25103); assay: biochemical; details: read-out: % inhibition or stimulation (human)
Adrenergic β2 = Adrenergic β2 (Homo sapiens, UniProt P07550); assay: biochemical; details: read-out: % inhibition or stimulation (human)
Neuropeptide Y Y1 = Neuropeptide Y Y1 (Homo sapiens, UniProt P25929); assay: biochemical; details: read-out: % inhibition or stimulation (human)
Melatonin MT1 = Melatonin MT1 (Homo sapiens, UniProt P48039); assay: biochemical; details: read-out: % inhibition or stimulation (human)
[4] = biological target: Transporter, Serotonin (5- Hydroxytryptamine) (SERT) (Homo sapiens, UniProt P31645); assay: biochemical; details: read-out: % inhibition or stimulation (human)
[5] = biological target: Nicotinic Acetylcholine α3β4 (Homo sapiens, UniProt P30926+P32297); assay: biochemical; details: read-out: % inhibition or stimulation (human)
Adenosine A3 = Adenosine A3 (Homo sapiens, UniProt P0DMS8); assay: biochemical; details: read-out: % inhibition or stimulation (human)
Muscarinic M2 = Muscarinic M2 (Homo sapiens, UniProt P08172); assay: biochemical; details: read-out: % inhibition or stimulation (human)
Cannabinoid CB1 = Cannabinoid CB1 (Homo sapiens, UniProt P21554); assay: biochemical; details: read-out: % inhibition or stimulation (human)
Adrenergic α2A = Adrenergic α2A (Homo sapiens, UniProt P08913); assay: biochemical; details: read-out: % inhibition or stimulation (human)
Histamine H3 = Histamine H3 (Homo sapiens, UniProt Q9Y5N1); assay: biochemical; details: read-out: % inhibition or stimulation (human)
[6] = biological target: Leukotriene, Cysteinyl CysLT1 (Homo sapiens, UniProt Q9Y271); assay: biochemical; details: read-out: % inhibition or stimulation (human)
[7] = biological target: Nicotinic Acetylcholine α1, Bungarotoxin (Homo sapiens, UniProt P02708); assay: biochemical; details: read-out: % inhibition or stimulation (human)
Muscarinic M3 = Muscarinic M3 (Homo sapiens, UniProt P20309); assay: biochemical; details: read-out: % inhibition or stimulation (human)
Muscarinic M1 = Muscarinic M1 (Homo sapiens, UniProt P11229); assay: biochemical; details: read-out: % inhibition or stimulation (human)
Adrenergic α1A = Adrenergic α1A (Homo sapiens, UniProt P35348); assay: biochemical; details: read-out: % inhibition or stimulation (human)
Bradykinin B2 = Bradykinin B2 (Homo sapiens, UniProt P30411); assay: biochemical; details: read-out: % inhibition or stimulation (human)
Histamine H1 = Histamine H1 (Homo sapiens, UniProt P35367); assay: biochemical; details: read-out: % inhibition or stimulation (human)
Opiate δ1 (OP1, DOP) = Opiate δ1 (OP1, DOP) (Homo sapiens, UniProt P41143); assay: biochemical; details: read-out: % inhibition or stimulation (human)
Bradykinin B1 = Bradykinin B1 (Homo sapiens, UniProt P46663); assay: biochemical; details: read-out: % inhibition or stimulation (human)
Adenosine A1 = Adenosine A1 (Homo sapiens, UniProt P30542); assay: biochemical; details: read-out: % inhibition or stimulation (human)
Opiate µ (OP3, MOP) = Opiate µ (OP3, MOP) (Homo sapiens, UniProt P35372); assay: biochemical; details: read-out: % inhibition or stimulation (human)
Adenosine A2A = Adenosine A2A (Homo sapiens, UniProt P29274); assay: biochemical; details: read-out: % inhibition or stimulation (human)
Adrenergic α1B = Adrenergic α1B (Homo sapiens, UniProt P35368); assay: biochemical; details: read-out: % inhibition or stimulation (human)
Adrenergic β1 = Adrenergic β1 (Homo sapiens, UniProt P08588); assay: biochemical; details: read-out: % inhibition or stimulation (human)
Sigma σ1 = Sigma σ1 (Homo sapiens, UniProt Q99720); assay: biochemical; details: read-out: % inhibition or stimulation (human)
Dopamine D2S = Dopamine D2S (Homo sapiens, UniProt P14416); assay: biochemical; details: read-out: % inhibition or stimulation (human)
Estrogen ERα = Estrogen ERα (Homo sapiens, UniProt P03372); assay: biochemical; details: read-out: % inhibition or stimulation (human)
Prostanoid EP4 = Prostanoid EP4 (Homo sapiens, UniProt P35408); assay: biochemical; details: read-out: % inhibition or stimulation (human)
Interleukin IL-1 R1 = Interleukin IL-1 R1 (Homo sapiens, UniProt P14778); assay: biochemical; details: read-out: % inhibition or stimulation (human)
[8] = biological target: Serotonin (5-Hydroxytryptamine) 5-HT3 (Homo sapiens, UniProt P46098); assay: biochemical; details: read-out: % inhibition or stimulation (human)
Dopamine D1 = Dopamine D1 (Homo sapiens, UniProt P21728); assay: biochemical; details: read-out: % inhibition or stimulation (human)
Adrenergic α1D = Adrenergic α1D (Homo sapiens, UniProt P25100); assay: biochemical; details: read-out: % inhibition or stimulation (human)
Dopamine D4.4 = Dopamine D4.4 (Homo sapiens, UniProt P21917); assay: biochemical; details: read-out: % inhibition or stimulation (human)
Dopamine D3 = Dopamine D3 (Homo sapiens, UniProt P35462); assay: biochemical; details: read-out: % inhibition or stimulation (human)
Neuropeptide Y Y2 = Neuropeptide Y Y2 (Homo sapiens, UniProt P49146); assay: biochemical; details: read-out: % inhibition or stimulation (human)
Endothelin ETB = Endothelin ETB (Homo sapiens, UniProt P24530); assay: biochemical; details: read-out: % inhibition or stimulation (human)
Opiate κ (OP2, KOP) = Opiate κ (OP2, KOP) (Homo sapiens, UniProt P41145); assay: biochemical; details: read-out: % inhibition or stimulation (human)
[9] = biological target: Transporter, Dopamine (DAT) (Homo sapiens, UniProt Q01959); assay: radioligand binding assay; details: read-out: % inhibition at 10 μM
[10] = biological target: Transporter, Norepinephrine (NET) (Homo sapiens, UniProt P23975); assay: radioligand binding assay; details: read-out: % inhibition at 10 μM
Histamine H2 = Histamine H2 (Homo sapiens, UniProt P25021); assay: radioligand binding assay; details: read-out: % inhibition or stimulation at 10 μM

Sequence of Adrenergic β2 (P07550 whole entry): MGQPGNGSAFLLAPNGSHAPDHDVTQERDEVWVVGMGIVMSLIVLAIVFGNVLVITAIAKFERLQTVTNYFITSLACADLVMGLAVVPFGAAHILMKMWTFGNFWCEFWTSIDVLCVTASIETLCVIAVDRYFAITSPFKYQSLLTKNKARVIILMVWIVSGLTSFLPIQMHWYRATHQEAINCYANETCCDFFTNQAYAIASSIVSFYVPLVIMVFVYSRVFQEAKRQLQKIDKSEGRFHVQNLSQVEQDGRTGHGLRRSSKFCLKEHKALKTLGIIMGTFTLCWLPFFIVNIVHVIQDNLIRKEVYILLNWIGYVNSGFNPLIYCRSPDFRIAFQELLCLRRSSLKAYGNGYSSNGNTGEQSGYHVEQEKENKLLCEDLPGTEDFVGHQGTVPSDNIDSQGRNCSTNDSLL
Sequence of Histamine H1 (P35367 whole entry): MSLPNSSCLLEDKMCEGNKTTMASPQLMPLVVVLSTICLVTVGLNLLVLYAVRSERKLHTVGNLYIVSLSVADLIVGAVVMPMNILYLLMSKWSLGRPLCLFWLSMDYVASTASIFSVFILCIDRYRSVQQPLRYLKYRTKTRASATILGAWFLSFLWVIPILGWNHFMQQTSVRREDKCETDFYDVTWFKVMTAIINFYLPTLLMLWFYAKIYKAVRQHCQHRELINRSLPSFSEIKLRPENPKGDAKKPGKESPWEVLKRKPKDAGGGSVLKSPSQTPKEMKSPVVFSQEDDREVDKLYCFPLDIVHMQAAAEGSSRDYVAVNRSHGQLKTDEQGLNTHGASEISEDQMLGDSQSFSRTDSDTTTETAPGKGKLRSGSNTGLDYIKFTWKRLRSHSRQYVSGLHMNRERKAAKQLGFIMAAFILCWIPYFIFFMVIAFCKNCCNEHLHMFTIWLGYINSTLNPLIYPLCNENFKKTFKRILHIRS
Sequence of Leukotriene, Cysteinyl CysLT1 (Q9Y271 whole entry): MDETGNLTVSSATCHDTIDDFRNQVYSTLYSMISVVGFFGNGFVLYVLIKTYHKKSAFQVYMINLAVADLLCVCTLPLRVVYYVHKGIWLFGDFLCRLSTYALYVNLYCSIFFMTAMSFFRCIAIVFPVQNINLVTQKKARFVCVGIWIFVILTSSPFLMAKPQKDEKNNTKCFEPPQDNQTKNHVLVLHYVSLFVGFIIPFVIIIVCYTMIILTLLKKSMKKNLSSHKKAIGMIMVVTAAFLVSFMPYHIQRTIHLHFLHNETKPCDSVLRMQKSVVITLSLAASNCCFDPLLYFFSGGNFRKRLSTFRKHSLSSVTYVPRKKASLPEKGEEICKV
Sequence of Nicotinic Acetylcholine α3β4 (P30926 whole entry): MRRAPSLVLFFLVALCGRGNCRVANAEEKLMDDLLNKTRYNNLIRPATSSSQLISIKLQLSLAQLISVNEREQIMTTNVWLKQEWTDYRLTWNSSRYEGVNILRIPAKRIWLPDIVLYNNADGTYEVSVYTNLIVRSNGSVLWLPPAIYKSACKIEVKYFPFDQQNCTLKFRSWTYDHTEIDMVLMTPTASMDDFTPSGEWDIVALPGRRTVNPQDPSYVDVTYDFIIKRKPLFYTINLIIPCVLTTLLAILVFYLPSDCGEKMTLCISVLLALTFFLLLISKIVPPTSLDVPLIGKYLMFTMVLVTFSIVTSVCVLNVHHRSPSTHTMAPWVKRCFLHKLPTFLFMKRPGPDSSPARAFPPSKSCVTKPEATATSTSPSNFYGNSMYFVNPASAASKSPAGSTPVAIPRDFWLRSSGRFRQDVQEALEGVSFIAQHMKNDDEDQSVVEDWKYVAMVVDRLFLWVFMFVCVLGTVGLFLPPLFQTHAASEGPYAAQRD
Sequence of Nicotinic Acetylcholine α3β4 (P32297 whole entry): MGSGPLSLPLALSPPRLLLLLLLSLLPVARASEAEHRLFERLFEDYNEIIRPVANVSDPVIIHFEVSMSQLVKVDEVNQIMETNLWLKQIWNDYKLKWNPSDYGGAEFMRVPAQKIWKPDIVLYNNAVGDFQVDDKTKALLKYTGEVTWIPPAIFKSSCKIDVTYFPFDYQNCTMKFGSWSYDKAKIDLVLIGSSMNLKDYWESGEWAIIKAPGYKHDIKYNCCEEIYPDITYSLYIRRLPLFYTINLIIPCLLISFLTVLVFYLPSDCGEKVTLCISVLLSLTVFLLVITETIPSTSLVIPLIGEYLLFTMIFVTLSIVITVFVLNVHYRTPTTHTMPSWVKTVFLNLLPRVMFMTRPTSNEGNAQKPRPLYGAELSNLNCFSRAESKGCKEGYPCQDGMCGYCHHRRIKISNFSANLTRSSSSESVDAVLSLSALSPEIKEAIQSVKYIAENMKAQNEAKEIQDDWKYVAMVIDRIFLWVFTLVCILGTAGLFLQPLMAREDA
Sequence of Interleukin IL-1 R1 (P14778 whole entry): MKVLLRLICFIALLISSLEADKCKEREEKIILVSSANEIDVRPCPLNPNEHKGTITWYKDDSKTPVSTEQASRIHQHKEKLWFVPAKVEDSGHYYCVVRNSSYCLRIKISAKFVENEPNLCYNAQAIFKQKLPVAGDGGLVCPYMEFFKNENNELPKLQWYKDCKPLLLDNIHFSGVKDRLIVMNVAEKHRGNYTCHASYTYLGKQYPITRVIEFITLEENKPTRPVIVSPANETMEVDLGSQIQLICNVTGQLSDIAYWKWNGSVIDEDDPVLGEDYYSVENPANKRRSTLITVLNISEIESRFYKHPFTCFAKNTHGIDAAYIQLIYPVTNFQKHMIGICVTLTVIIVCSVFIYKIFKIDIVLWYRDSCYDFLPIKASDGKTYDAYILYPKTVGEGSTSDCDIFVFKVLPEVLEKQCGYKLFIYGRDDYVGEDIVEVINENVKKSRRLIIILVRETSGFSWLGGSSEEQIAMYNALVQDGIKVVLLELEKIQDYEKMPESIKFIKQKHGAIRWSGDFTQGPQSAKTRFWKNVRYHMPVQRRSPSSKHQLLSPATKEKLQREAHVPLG
Sequence of Muscarinic M2 (P08172 whole entry): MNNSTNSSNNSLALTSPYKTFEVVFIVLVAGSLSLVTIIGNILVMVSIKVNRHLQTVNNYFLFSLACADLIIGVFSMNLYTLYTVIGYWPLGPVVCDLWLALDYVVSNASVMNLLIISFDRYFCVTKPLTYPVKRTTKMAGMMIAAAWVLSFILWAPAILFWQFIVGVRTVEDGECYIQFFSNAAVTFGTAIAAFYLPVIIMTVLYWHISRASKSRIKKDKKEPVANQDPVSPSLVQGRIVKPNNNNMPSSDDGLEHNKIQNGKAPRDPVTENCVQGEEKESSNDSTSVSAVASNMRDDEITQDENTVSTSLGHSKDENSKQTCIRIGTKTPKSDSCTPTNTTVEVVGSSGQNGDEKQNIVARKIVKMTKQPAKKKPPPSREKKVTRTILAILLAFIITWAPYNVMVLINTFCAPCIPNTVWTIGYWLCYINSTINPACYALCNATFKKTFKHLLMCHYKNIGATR
Sequence of Estrogen ERα (P03372 whole entry): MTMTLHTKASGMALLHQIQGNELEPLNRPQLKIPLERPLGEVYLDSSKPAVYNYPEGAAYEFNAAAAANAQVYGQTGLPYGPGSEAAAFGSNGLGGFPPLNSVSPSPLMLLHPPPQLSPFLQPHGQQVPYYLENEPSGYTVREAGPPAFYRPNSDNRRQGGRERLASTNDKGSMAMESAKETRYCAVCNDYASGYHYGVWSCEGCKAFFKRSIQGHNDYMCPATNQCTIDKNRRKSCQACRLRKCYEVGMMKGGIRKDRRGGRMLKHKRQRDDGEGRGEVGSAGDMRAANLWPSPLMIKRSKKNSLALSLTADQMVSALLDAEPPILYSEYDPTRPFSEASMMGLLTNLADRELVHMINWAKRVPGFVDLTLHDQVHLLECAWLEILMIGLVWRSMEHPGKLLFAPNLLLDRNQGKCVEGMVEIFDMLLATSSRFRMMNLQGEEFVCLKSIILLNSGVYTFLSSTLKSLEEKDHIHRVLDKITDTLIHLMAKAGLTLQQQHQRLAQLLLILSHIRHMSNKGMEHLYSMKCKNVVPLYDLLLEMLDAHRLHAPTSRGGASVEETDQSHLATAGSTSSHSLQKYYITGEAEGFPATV
Sequence of Prostanoid EP4 (P35408 whole entry): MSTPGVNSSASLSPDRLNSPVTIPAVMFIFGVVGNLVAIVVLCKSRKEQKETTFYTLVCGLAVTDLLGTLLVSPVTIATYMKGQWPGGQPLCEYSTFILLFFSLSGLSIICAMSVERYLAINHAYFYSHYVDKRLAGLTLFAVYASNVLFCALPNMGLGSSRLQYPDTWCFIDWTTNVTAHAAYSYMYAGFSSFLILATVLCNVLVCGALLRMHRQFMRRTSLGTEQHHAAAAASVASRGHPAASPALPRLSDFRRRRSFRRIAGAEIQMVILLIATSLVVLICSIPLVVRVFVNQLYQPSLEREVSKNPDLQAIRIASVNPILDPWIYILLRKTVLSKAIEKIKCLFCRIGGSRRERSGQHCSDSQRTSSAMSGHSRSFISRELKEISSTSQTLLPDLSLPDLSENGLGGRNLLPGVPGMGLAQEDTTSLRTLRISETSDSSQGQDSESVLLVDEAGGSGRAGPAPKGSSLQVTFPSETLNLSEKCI
Sequence of Adenosine A1 (P30542 whole entry): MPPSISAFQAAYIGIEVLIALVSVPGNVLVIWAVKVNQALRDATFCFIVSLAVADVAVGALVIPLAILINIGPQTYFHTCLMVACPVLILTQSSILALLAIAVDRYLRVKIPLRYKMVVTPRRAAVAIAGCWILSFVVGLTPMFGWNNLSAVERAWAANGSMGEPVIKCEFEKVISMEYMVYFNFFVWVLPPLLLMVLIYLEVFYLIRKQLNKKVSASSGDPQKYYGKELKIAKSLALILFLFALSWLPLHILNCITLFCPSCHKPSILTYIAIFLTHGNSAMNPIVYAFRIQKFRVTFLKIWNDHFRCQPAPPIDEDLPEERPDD
Sequence of Sigma σ1 (Q99720 whole entry): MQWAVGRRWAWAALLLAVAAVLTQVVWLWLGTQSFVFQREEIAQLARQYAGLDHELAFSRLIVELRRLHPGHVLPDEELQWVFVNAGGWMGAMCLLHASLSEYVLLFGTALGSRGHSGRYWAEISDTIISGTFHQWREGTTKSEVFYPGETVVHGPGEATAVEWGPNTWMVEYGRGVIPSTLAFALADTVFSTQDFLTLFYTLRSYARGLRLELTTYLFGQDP

CC(C)(C)c1ccc(C2=C(/C=N/O)CCC2)cc1 [8n, (E)-2-(4-(tert-butyl)phenyl)cyclopent-1-ene-1-carbaldehyde oxime]
inhibition at 10 µM (Androgen (Testosterone)): 79% | inhibition at 10 µM [1]: 2% | inhibition at 10 µM [2]: -14% | inhibition at 10 µM (Glucocorticoid): -4% | inhibition at 10 µM (Serotonin 5-HT2B): 63% | inhibition at 10 µM (Potassium Channel hERG): 25% | inhibition at 10 µM [3]: -42% | inhibition at 10 µM (Endothelin ETA): 11% | inhibition at 10 µM (Tachykinin NK1): -2% | inhibition at 10 µM (Adrenergic β2): 12% | inhibition at 10 µM (Neuropeptide Y Y1): -6% | inhibition at 10 µM (Melatonin MT1): -3% | inhibition at 10 µM [4]: 13% | inhibition at 10 µM [5]: -1% | inhibition at 10 µM (Adenosine A3): 45% | inhibition at 10 µM (Muscarinic M2): 7% | inhibition at 10 µM (Cannabinoid CB1): 20% | inhibition at 10 µM (Adrenergic α2A): 14% | inhibition at 10 µM (Histamine H3): 0% | inhibition at 10 µM [6]: 25% | inhibition at 10 µM [7]: 0% | inhibition at 10 µM (Muscarinic M3): 9% | inhibition at 10 µM (Muscarinic M1): 0% | inhibition at 10 µM (Adrenergic α1A): 5% | inhibition at 10 µM (Bradykinin B2): -27% | inhibition at 10 µM (Histamine H1): 42% | inhibition at 10 µM (Opiate δ1 (OP1, DOP)): 7% | inhibition at 10 µM (Bradykinin B1): -3% | inhibition at 10 µM (Adenosine A1): 33% | inhibition at 10 µM (Opiate µ (OP3, MOP)): 9% | inhibition at 10 µM (Adenosine A2A): 16% | inhibition at 10 µM (Adrenergic α1B): -15% | inhibition at 10 µM (Adrenergic β1): 4% | inhibition at 10 µM (Sigma σ1): 33% | inhibition at 10 µM (Dopamine D2S): 12% | inhibition at 10 µM (Estrogen ERα): 6% | inhibition at 10 µM (Prostanoid EP4): 34% | inhibition at 10 µM (Interleukin IL-1 R1): 19% | inhibition at 10 µM [8]: -5% | inhibition at 10 µM (Dopamine D1): 30% | inhibition at 10 µM (Adrenergic α1D): 7% | inhibition at 10 µM (Dopamine D4.4): -15% | inhibition at 10 µM (Dopamine D3): 23% | inhibition at 10 µM (Neuropeptide Y Y2): -11% | inhibition at 10 µM (Endothelin ETB): 0% | inhibition at 10 µM (Opiate κ (OP2, KOP)): 0% | inhibition at 10 µM [9]: 86% | inhibition at 10 µM [10]: 75% | inhibition at 10 µM (Histamine H2): -54%
